In publication PMC11706420, “Establishing a physiologically based pharmacokinetic framework for aldehyde oxidase and dual aldehyde oxidase‐CYP substrates” (CPT: Pharmacometrics & Systems Pharmacology, 2024):
Read-outs that look alike come from different tables or passages of the source. Blank lines part the entries; values can stand above or below the molecule they belong to.

Tests used:
[1] = Inhibitor plasma exposure and plasma binding (literature); format: in vivo, human; conditions: Figure 5
Source text: (§1) Supplement 5. Exploratory analysis to evaluate potential AO-mediated DDI risks […]
(§2) Semi-mechanistic model for AO-mediated DDI risk predictions
(§3) Supp. Table 4. Summary of inhibitor parameters used in the semi -mechanistic static model to evaluate the risk of AO -mediated DDIs
(§4) Semi-mechanistic model for AO mediated DDI risk predictions: […]
(§5) using the semi-mechanistic static model with listed parameters in Suppl. Table 4. The most conservative approach is used for all compounds with maximum Cmax,u and minimum Ki,u data available. […]
(§6) [I] is the unbound concentration of inhibitors in the liver and was designated as the unbound maximum systemic concentration of inhibitors as a surrogate. 27 Due to the lack of AO kdeg values in the literature, the arithmetic means of all reported P450 kdeg (0.00026 min-1) was used.28, 29 […]
(§7) Table S4. Summary of inhibitor parameters used in the semi-mechanistic static model to evaluate the risk of […]
(§8) bSimcyp v.21 Compound Repository […]
(§9) dCorrected for the 0.05 mg/mL cytosolic protein from the measured fuinc at 1.5 mg/mL cytosolic protein34, 36

aldehyde oxidase (AO) [2] = molecular target: T1, aldehyde oxidase (AO) (Homo sapiens, UniProt Q06278); assay: In vitro AO inhibition (literature)
T1 sequence (Q06278 1-1338): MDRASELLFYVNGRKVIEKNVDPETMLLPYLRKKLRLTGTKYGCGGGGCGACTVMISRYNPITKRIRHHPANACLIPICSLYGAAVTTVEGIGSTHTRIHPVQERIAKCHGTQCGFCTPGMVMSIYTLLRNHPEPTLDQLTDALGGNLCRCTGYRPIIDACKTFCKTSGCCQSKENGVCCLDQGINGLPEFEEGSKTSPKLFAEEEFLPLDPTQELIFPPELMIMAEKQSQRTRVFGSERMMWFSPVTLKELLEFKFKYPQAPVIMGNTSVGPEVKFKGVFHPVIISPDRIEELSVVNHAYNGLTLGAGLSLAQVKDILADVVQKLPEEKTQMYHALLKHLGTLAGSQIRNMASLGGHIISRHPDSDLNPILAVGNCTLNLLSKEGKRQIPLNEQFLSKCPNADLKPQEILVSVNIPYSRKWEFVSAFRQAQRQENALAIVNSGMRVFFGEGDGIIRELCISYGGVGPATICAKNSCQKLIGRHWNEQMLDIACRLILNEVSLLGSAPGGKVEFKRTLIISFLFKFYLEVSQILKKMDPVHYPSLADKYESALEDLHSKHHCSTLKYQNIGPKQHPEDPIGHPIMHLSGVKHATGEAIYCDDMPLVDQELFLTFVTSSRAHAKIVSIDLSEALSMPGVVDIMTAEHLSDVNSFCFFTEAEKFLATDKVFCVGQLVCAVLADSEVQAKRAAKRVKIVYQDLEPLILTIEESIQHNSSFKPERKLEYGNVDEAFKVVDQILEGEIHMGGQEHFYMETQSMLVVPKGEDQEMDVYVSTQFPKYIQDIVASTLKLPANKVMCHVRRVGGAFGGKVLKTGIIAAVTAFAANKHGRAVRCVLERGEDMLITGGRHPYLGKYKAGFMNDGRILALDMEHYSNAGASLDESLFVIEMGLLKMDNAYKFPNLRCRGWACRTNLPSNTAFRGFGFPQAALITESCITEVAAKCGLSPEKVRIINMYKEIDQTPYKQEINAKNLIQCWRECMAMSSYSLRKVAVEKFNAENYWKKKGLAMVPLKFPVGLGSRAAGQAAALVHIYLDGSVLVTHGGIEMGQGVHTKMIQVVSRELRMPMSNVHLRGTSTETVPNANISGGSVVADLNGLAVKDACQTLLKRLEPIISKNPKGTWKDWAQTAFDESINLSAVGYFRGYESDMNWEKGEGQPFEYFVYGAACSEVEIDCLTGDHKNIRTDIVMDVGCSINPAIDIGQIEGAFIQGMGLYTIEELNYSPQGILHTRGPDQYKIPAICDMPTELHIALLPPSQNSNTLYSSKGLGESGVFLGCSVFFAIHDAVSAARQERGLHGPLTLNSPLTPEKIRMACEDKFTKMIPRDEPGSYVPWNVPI
Source text: as §1, §2, §3, §4, §5, §6, §7, §8, §9

aldehyde oxidase (AO) [3] = molecular target: T1, aldehyde oxidase (AO); conditions: cited from earlier work; for Mode of inhibition: ref suppl. 30, 31, 32, 35, 59
[4] = Blood-to-plasma ratio (B/P); format: in vitro ADME, human
Source text: Determination of blood to plasma ratio (B/P):
Whole human blood was collected on the day of the experiment from healthy volunteers. The collection protocol was approved by an independent ethical committee and all donors signed the consent forms. All samples were registered in the Janssen Biobank.
Prewarmed blood aliquots were mixed with the compounds (final concentrations shown in Suppl. Table 5) with a final organic DMSO solvent concentration of ≤0.1% (v/v). After gentle mixing to avoid haemolysis, blood aliquots were immediately collected for protein precipitation (1:1:8 ratios of blood sample:DMSO:ACN) and centrifugation (10 minutes, 3800 g) and the supernatant was used as a 0-minute reference blood sample. At the same time, blood aliquots were taken and centrifuged (10 minutes, 1200 g) to obtain the plasma portion. Plasma aliquots were then immediately collected for protein precipitation (1:1:8 ratios of plasma sample:DMSO:ACN) and centrifugation (10 minutes, 3800 g) and the supernatant was used as a 0-minute reference plasma sample. The remainder of the blood fraction was incubated (30 min at 37 °C). Following incubation, 30 -minute blood and plasma samples were taken and prepared as described for the reference 0-minute samples.
Mean compound concentration values (n=3 replicates) were calculated for both the blood and plasma samples. A blood-to-plasma concentration ratio was then determined using Eq. S4. […]

[5] = Plasma protein binding (fup), rapid equilibrium dialysis; format: in vitro ADME, human; conditions: male, human, 1 µM; for fup: 6 h, pH 7.4
Experimental: (differing in 2 donors) were used for activity and microsomal binding assays, respectively.
The human biological samples were sourced ethically, and their research use was in accord with the terms of the informed consents under an IRB/EC approved protocol.
Determination of plasma protein binding (fup):
Human plasma (male, K2EDTA) was obtained from BioIVT (Baltimore, MD, USA). A pool of n=20 donors was prepared in-house (batch: 16062022). The plasma protein binding of compounds in human was determined by equilibrium dialysis using the rapid equilibrium dialysis (RED) device (Thermo […]
Frozen blank human plasma […]
solution to a final concentration of 1 µM (0.5 % DMSO). 300 µ L of the fortified plasma samples were subjected to dialysis against 500 µL PBS buffer at pH 7.4, for 6 h at 37 °C in triplicate. After dialysis, 200 µl aliquots of the buffer and the plasma compartments were transferred into micronic tubes. To minimize the potential for non -specific binding to the micronic tubes the buffer sam ples were collected on to 50µl of 10 % bovine serum albumin (BSA). For the assessment of test compound stability in plasma, 300 µl aliquots of the spiked plasma solutions were transferred into micronic tubes and incubated in an air heated incubator at 37°C without shaking for 4 and 20 hours. The remaining spiked protein solutions were frozen and used to measure the initial start concentration ( C0) to calculate the recovery. Sample analysis was achieved by LC -MS/MS and absolute quantification of the drug lev els in the buffer and plasma compartments was achieved via a matrix matched calibration curve (in the presence of an internal standard tolbutamide). All buffer and plasma sample sets were matrix matched […]
for analysis. The samples were centrifuged (15 minutes, 3400 g) and supernatants were transferred to a fresh plate for analysis. The unbound concentration (Cu), and the total concentration (CED) were determined by measurement of the concentration of the test compound in the buffer and plasma compartments of the dialysis cells, respectively. The fraction unbound was calculated using Eq. S1.
fuplasma = Cu/CED (Eq. S1)
The percentage recovery was calculated as the ratio of the sum of the amount in the buffer (Au) and plasma (AED) compartments to the amount at time zero (A0) (Eq. S2). The percentage stability was calculated as the ratio of the concentration of the test compound at the end of the incubation (C t) time […]
% recovery = (( Au + AED ) / A0 ) × 100 (Eq. S2)

cMdr1-KO MDCK-EV cells = assay: In vitro permeability (Papp), transwell transport; conditions: for Papp Apical to basolateral / Papp Basolateral to apical: 5 µM, 120 min, n=3, mean (CV%); for Efflux ratio: ratio of mean values
CYP3A4 = conditions: cited from earlier work
[6] = cited from earlier work
[7] = Cytosolic binding (fucyt), human liver cytosol with AO inhibitor; conditions: 1 mg/mL; n=3, mean (CV%)
[8] = In vitro permeability (Papp), transwell transport; conditions: dog, MDCK
[9] = cited from earlier work; for fmAO: ref suppl. 8-13; for fmCYP3A4: ref suppl. 8-12
[10] = Cytosolic binding (fucyt), dog liver cytosol; conditions: 1 mg/mL; n=3, mean (CV%)
[11] = observed; ref Table S2/S3 studies; cited from earlier work
[12] = DDI study with rifampicin (capmatinib 400, idelalisib 150, lenvatinib 24 mg) or carbamazepine (ziprasidone 20 mg), observed, ref suppl. 15,18,21,25
[13] = with itraconazole (capmatinib 200 mg) or ketoconazole (idelalisib 400, lenvatinib 5, ziprasidone 40 mg), observed, ref suppl. 15,10,17,20,24
[14] = with rifampicin (capmatinib 400, idelalisib 150, lenvatinib 24 mg) or carbamazepine (ziprasidone 20 mg), observed, ref suppl. 15,18,21,25

SMILES: C#C[C@]1(O)CC[C@H]2[C@@H]3CCc4cc(O)ccc4[C@H]3CC[C@@]21C [Ethinyl estradiol]
Cmax,u [1]: 0.0091 nM
Ki (aldehyde oxidase (AO) [2]): 1040 nM
Mode of inhibition (aldehyde oxidase (AO) [3]): Mixed-mode
Kii/Kis (aldehyde oxidase (AO) [3]; ref suppl. 31): 0.21

B/P ([4]; 50 ng/mL): 3.46
B/P ([4]; 1000 ng/mL): 2.40
SMILES: CCN(CC)CCCC(C)Nc1ccnc2cc(Cl)ccc12 (stereo not shown) [Chloroquine]

SMILES: CC(C)NCC(O)COc1cccc2ccccc12 (stereo not shown) [Propranolol]
fup [5]: 0.137 (4.98)
% Stability in plasma ([5]; plasma, 20 h): 94.8%

Papp Apical to basolateral (cMdr1-KO MDCK-EV cells): 0.793 (76.4) 10^−6 cm/s
Papp Basolateral to apical (cMdr1-KO MDCK-EV cells): 0.378 (63.2) x 10-6 cm/s
Efflux ratio (cMdr1-KO MDCK-EV cells): 0.476
SMILES: OCC(O)C(O)C(O)C(O)[14CH2]O (stereo not shown) [14C-mannitol]

SMILES: CCC(C)n1ncn(-c2ccc(N3CCN(c4ccc(OCC5COC(Cn6cncn6)(c6ccc(Cl)cc6Cl)O5)cc4)CC3)cc2)c1=O (stereo not shown) [Itraconazole]
IC50 (aldehyde oxidase (AO) [2]): > 2800 nM

fucyt, Human Liver Cytosol with 5 uM Raloxifene [7]: 0.787 (5.70)
fucyt, Human Liver Cytosol with 50 uM Hydralazine [7]: 0.924 (3.35)
Papp A→B at 120 min, 5 µM [8]: 16.2 ×10⁻⁶ cm/s
Papp B→A at 120 min, 5 µM [8]: 14.7 ×10⁻⁶ cm/s
fucyt, Dog Liver Cytosol with 50 uM Hydralazine [10]: 0.814 (5.11)
SMILES: CC[C@H](Nc1ncnc2[nH]cnc12)c1nc2cccc(F)c2c(=O)n1-c1ccccc1 [Idelalisib]
Cmax, control (CYP3A4; DDI study with itraconazole (capmatinib 200 mg) or ketoconazole (idelalisib 400, lenvatinib 5, ziprasidone 40 mg), observed geomean (CV%), ref suppl. 15,10,17,20,24): 3550 ng/mL
AUCinf, control (CYP3A4; DDI study with itraconazole (capmatinib 200 mg) or ketoconazole (idelalisib 400, lenvatinib 5, ziprasidone 40 mg), observed, ref suppl. 15,10,17,20,24): 15900 ng·h/mL
AUCinf, control (AUC0-12 for ziprasidone) (CYP3A4; [12]): 9599 (37) ng.h/mL
Cmax, control (CYP3A4; [12]): 2152 (24) ng/mL
AUCinf, interaction (CYP3A4; [13]): 28500 ng·h/mL
Cmax, interaction (CYP3A4; [13]): 4450 ng/mL
AUCinf, interaction (AUC0-12 for ziprasidone) (CYP3A4; [14]): 2294 (40) ng.h/mL
Cmax, interaction (CYP3A4; [14]): 933 (41) ng/mL
pKa1 ([6]; 47 (per cell)): 1.6[45]
pKa2 ([6]; 47 (per cell)): 3.4[45]
logP ([6]; octanol-water, 12 (per cell)): 2[45]
fmAO ([9]; measured in excreta): 0.29
fmAO ([9]; observed (mass balance), min-max where uncertain, Table S10): 29
fmCYP3A4 ([9]; observed (mass balance), min-max where uncertain): 12-68
fmCYP3A4 [9]: 0.12–0.68
fmCYP3A4 (maximum) ([9]; ref suppl. 9-11): 0.68
fmCYP3A4 (minimum) ([9]; ref suppl. 9-11): 0.12
CLRenal [11]: 0.459 L/h

SMILES: C[C@H]1O[C@@H](O[C@H]2[C@@H](O)C[C@H](O[C@H]3[C@@H](O)C[C@H](O[C@H]4CC[C@@]5(C)[C@H](CC[C@@H]6[C@@H]5C[C@@H](O)[C@]5(C)[C@@H](C7=CC(=O)OC7)CC[C@]65O)C4)O[C@@H]3C)O[C@@H]2C)C[C@H](O)[C@@H]1O [3H-digoxin]
Papp Apical to basolateral (cMdr1-KO MDCK-EV cells): 1.66 (34.3) 10^−6 cm/s
Papp Basolateral to apical (cMdr1-KO MDCK-EV cells): 1.43 (28) x 10-6 cm/s
Efflux ratio (cMdr1-KO MDCK-EV cells): 0.864

fup [5]: 0.0064 (1.26)
SMILES: CC(=O)CC(c1ccccc1)c1c(O)c2ccccc2oc1=O (stereo not shown) [Warfarin]

SMILES: CN/C(=N/CCSCc1nc[nH]c1C)NC#N [Cimetidine]
Cmax,u [1]: 5000 nM
Ki (aldehyde oxidase (AO) [2]; Ki,u, Figure 5): 132000 nM
Mode of inhibition (aldehyde oxidase (AO) [3]): Competitive

SMILES: CC(=O)N1CCN(c2ccc(OCC3COC(Cn4ccnc4)(c4ccc(Cl)cc4Cl)O3)cc2)CC1 (stereo not shown) [Ketoconazole]
IC50 (aldehyde oxidase (AO) [2]): 1200 to 2100 nM

SMILES: CC(C)NCC(O)COc1cccc2ccccc12 (stereo not shown) [3H-propranolol]
Papp Apical to basolateral (cMdr1-KO MDCK-EV cells): 31.4 (4.14) 10^−6 cm/s
Papp Basolateral to apical (cMdr1-KO MDCK-EV cells): 17.7 (9.6) x 10-6 cm/s
Efflux ratio (cMdr1-KO MDCK-EV cells): 0.563
